The numbers were not newly measured in publication PMC5175396, “Cytotoxicity of Plumbagin, Rapanone and 12 other naturally occurring Quinones from Kenyan Flora towards human carcinoma cells” (BMC Pharmacology & Toxicology, 2016), which cites them from elsewhere.

The series relates to PF-382 leukemia T-cells, MiaPaCa-2 pancreatic cells, U87MG glioblastoma-astrocytoma cells, Colo-38 skin melanoma cells, HeLa and Caski cervical carcinoma cells. Further details: method as in PMID 21886765. The settings on record: PF-382, MiaPaCa-2, U87MG, Colo-38, HeLa, read-out: IC50 against a panel of cancer cell lines; cited from earlier work.

As a reminder, the IC50 is the concentration that inhibits the measured activity by half. `CC(=O)c1cc2c(o1)C(=O)c1ccccc1C2=O` [2-acetylfuro-1,4-naphthoquinone]: the concentration for half-maximal inhibition (IC50) is below 10 µM.
